Experimental findings from PubChem BioAssay (NCI) are described below.

SMILES strings stand for the structures.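 Exposure lasted 48 hours, with cells grown in 96-well plates and compounds tested at five concentrations. Abbreviation: GI50, concentration required for 50% inhibition of growth. TGI is the concentration that stops growth completely.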

Among the test systems are DLD-1 colon; DU-145 prostate; HCT-116 colon; IGROV1 ovarian; KM20L2 colon; NCI-H23 lung; NCI-H460 lung; NCI/ADR-RES ovarian; SK-MEL-28 melanoma; SK-OV-3 ovarian.
Common to all, as to experiment: inhibition of tumour cell growth, NCI panel, 48 h

Turning to `CC(=O)[CH-]C(C)=O.CC(=O)[CH-]C(C)=O.N=CC=N.[Sn+2]`, the GI50 was 1.71 µM with DLD-1 colon; 2.77 µM with DU-145 prostate; 1.72 µM in the experiment on HCT-116 colon; 9.53 µM with IGROV1 ovarian; 8.54 µM in the experiment with KM20L2 colon; 3.23 µM in the experiment on NCI-H23 lung. The GI50 in the experiment with NCI-H460 lung was 3.9 µM; in the experiment on NCI/ADR-RES ovarian it was 3.15 µM; with SK-MEL-28 melanoma it was 1.92 µM; in the experiment on SK-OV-3 ovarian, 8.74 µM. Moreover, the TGI in the experiment on DLD-1 colon was 3.26 µM; in the experiment on DU-145 prostate, 11.2 µM; in the experiment on HCT-116 colon it was 3.42 µM; in the experiment with IGROV1 ovarian it was 22.4 µM; in the experiment with KM20L2 colon, 20.9 µM; in the experiment on NCI-H23 lung, 10.9 µM. The TGI amounted to 10.8 µM in the experiment with NCI-H460 lung, 12.6 µM with NCI/ADR-RES ovarian, 4.27 µM with SK-MEL-28 melanoma and 21.7 µM in the experiment with SK-OV-3 ovarian.

For the compound `CC(C)(C)c1nc2c(o1)C(=Nc1ccc(F)cc1)c1ccccc1C2=O`, the TGI with DLD-1 colon was > 100 µM; in the experiment with DU-145 prostate, 29.4 µM; with HCT-116 colon, 38.2 µM; with IGROV1 ovarian, > 66.7 µM; in the experiment with KM20L2 colon, 32.5 µM; in the experiment with NCI-H23 lung it was 8.98 µM. Further, the TGI was 21.5 µM in the experiment on NCI-H460 lung, > 56.7 µM in the experiment with NCI/ADR-RES ovarian, 26 µM in the experiment on SK-MEL-28 melanoma and 45.9 µM in the experiment with SK-OV-3 ovarian.

Consider `COc1ccc2c(-c3cc4ccccc4o3)cc(=O)oc2c1`, for which the TGI with DLD-1 colon, in the experiment on DU-145 prostate, in the experiment with HCT-116 colon, in the experiment on IGROV1 ovarian, with KM20L2 colon and with NCI-H23 lung was > 100 µM each time. Further, the TGI is > 100 µM with NCI-H460 lung, > 100 µM in the experiment with NCI/ADR-RES ovarian, > 100 µM in the experiment on SK-MEL-28 melanoma and 52.1 µM with SK-OV-3 ovarian.
